Test results: article PMC13099959, “Context-dependent activation and evolutionary buffering of a mating pheromone in fission yeast” (Communications Biology, 2026)
No end group written: not given here. Far = not defined here

What was measured:
[1] = tested on: S. pombe h90 strains (mating and sporulation); assay: Frequency of zygote formation (microscopy-based mating frequency); type: cell-based, Schizosaccharomyces pombe
Protocol: Cells were pre-cultured on YEA medium at 30 °C overnight, washed with 1 mL sterilized water (10,000 rpm, 3 min, 4 °C), and adjusted to an OD600 of 5.0. Aliquots (30 µL) were spotted on YEA, MEA, SSA, or fruit/vegetable juice media (grape, orange, apple, vegetable) and incubated at 30 °C for 48 h. After 48 h, cells were harvested and examined using a differential interference contrast microscopy (BX53, Olympus, Tokyo, Japan) with the UPlanSApo 60×/1.35 NA oil-immersion objective, ORCA-spark camera (Hamamatsu Photonics, Hamamatsu, Japan), and CellSens software. Nine random fields were imaged per plate. Mating rates were calculated as in Seike et al.[11] using the equation: Mating rate(%)=2Z+2A+0.5S×100/V+2Z+2A+0.5S where V, Z, A, and S represent vegetative cells, zygotes, asci, and spores, respectively. Data are reported as the mean ±s.d.
All statistical analyses treated biological replicates (n = 3) as the unit of replication. Unless stated otherwise, values are reported as mean ± s.d., tests were two-sided, and no data were excluded. For two-group comparisons we used Welch’s t test (unequal variances). Significance in figures is denoted as p < 0.05, p < 0.01, and p < 0.001. […] For microscopy-based mating assays, nine random fields were scored per plate; field values were averaged within each biological replicate to avoid pseudoreplication. […] Analyses were performed in Python (pandas, numpy, math); plots were generated using matplotlib and seaborn.

M-factor receptor Map3 = target: T1, M-factor receptor Map3 (Schizosaccharomyces pombe, UniProt P31397); assay: In vitro M-factor activity assay using a map4 promoter–lacZ fusion (β-galactosidase); type: cell-based; details: synthetic peptide 10 µM, map4-lacZ reporter strain, nitrogen-free SSL medium, pH 5.5 or 7.0
T1 construct: Tester strain TS472 was inoculated into 5 mL SSL + N medium; endogenous in cells; host or cells: S. pombe tester strain TS472 (map4 promoter-lacZ reporter)
T1 sequence (P31397 1-365): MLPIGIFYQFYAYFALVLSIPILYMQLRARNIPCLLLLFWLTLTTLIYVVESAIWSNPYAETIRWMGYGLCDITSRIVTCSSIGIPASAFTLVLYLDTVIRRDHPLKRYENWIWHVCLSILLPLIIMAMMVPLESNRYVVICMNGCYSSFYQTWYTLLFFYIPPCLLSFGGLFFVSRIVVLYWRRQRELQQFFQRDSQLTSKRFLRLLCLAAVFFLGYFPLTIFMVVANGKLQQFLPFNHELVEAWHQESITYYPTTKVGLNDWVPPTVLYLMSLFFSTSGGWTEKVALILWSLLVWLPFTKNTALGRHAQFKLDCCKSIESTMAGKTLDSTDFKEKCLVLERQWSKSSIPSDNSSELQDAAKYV
Protocol: β-galactosidase activity was measured to evaluate activation of the M-factor receptor Map3 using synthetic M-factor peptides, following a previously described method[22]. Tester strain TS472 was inoculated into 5 mL SSL + N medium (SSA without agar) at an initial OD600 of 0.1 and cultured at 30 °C for 20 h. Cells were washed three times with SSL–N medium (lacking 0.5 g/L aspartic acid) and resuspended in SSL–N at varying pH values (adjusted with HCl or NaOH) to OD600 = 2.0.
Thereafter, cells were washed and resuspended in Z-buffer (60 mM Na2HPO4, 40 mM NaH2PO4, 10 mM KCl, 1 mM MgSO4·7H2O, and 50 mM β-mercaptoethanol; pH 7.0) to OD600 = 5.0. For each replicate (n = 3), 200 µL of cell suspension was mixed with 600 µL Z-buffer, 15 µL chloroform, and 12 µL 0.1% SDS, vortexed, and incubated at 30 °C for 5 min. Reactions were initiated with 160 µL o-nitrophenyl-β-D-galactopyranoside (ONPG; 4 mg/mL in Z-buffer), and both start and end times were recorded. After incubation at 30 °C, reactions were terminated with 400 µL 1 M Na2CO3, centrifuged (13,000 rpm, 3 min, 4 °C), and 200 µL supernatant was diluted into 1 mL 0.33 M Na2CO3. Absorbance at 420 nm (OD420) was measured to calculate Miller units. Miller units=(OD420×1000)/(V×t×OD600) where V is reaction volume (mL) and t is reaction time (minute). Data are reported as the mean ± s.d. […]

| pH dependence of β-galactosidase activity (Map3 activation) (M-factor receptor Map3) | Substance | Mating competence at pH 5.5 ([1]; SSA pH 5.5, 48 h) | Cells forming mature asci ([1]; SSA pH 7.5–8.5, 48 h) | Effect on mating in background with intact mfm2+ and mfm3+ genes ([1]; mfm1-P36H in h90 mfm2+ mfm3+ background, SSA pH 5.5 and pH 7.0) |
| --- | --- | --- | --- | --- |
|  | P6H: M-factor single-amino acid variant; also tested as synthetic peptide (Eurofins) (YTPKVHYMC(Far)-OMe; ends and bridges not checked; UniProt P34068 31-39, looked up, variant P36H) | virtually sterile | approximately 50% | does not exert a dominant-negative effect on mating |
| higher activity at acidic pH | T2Q: M-factor single-amino acid variant; also tested as synthetic peptide (Eurofins) (YQPKVPYMC(Far)-OMe; ends and bridges not checked; UniProt P34068 31-39, looked up, variant T32Q) |  |  |  |
